Measured values from US8569484B2, “Heterocyclic urea derivatives and methods of use thereof” (Astrazeneca AB, priority 2009, dated 2013).
Where two headings read alike, the source gives them in different places.

Target: S. aureus GyrB ATPase (Staphylococcus aureus, UniProt P0A0K8)
Assay: S. aureus GyrB ATPase inhibition (ammonium molybdate/malachite green phosphate detection)
Assay type: biochemical
Conditions: read-out: Percent Inhibition (1 μM)
Experimental: S. aureus GyrB ATPase Inhibition Activity: Compounds may be tested for inhibition of S. aureus GyrB ATPase activity using an ammonium molybdate/malachite green-based phosphate detection assay (Lanzetta, P. A., L. J. Alvarez, P. S. Reinach, and O. A. Candia, 1979, 100: 95-97). Assays can be performed in multiwell plates in 30 μl reactions containing: 50 mM Hepes buffer pH 7.5, 75 mM ammonium acetate, 8.0 mM magnesium chloride, 0.5 mM ethylenediaminetetraacetic acid, 5% glycerol, 1.0 mM 1,4-Dithio-DL-threitol, 200 nM bovine serum albumin, 1.0 μg/ml sheared salmon sperm DNA, 250 pM E. coli GyrA, 250 pM S. aureus GyrB, 250 μM ATP, and compound in dimethylsulfoxide. Reactions can be quenched with 30 μl of ammonium molybdate/malachite green detection reagent containing 1.2 mM malachite green hydrochloride, 8.5 mM ammonium molybdate tetrahydrate, and 1 M hydrochloric acid. Plates can be read in an absorbance plate reader at 650 nm and percent inhibition values can be calculated using dimethylsulfoxide (2%)-containing reactions as 0% inhibition and EDTA-containing ([…]) reactions as 100% inhibition controls. An IC50 measurement of compound potency for each compound can be determined from reactions performed in the presence of 10 different compound concentrations.

[1] = 1 μM compound, S. aureus GyrB ATPase

S. aureus GyrB ATPase, sequence (P0AES4 whole entry): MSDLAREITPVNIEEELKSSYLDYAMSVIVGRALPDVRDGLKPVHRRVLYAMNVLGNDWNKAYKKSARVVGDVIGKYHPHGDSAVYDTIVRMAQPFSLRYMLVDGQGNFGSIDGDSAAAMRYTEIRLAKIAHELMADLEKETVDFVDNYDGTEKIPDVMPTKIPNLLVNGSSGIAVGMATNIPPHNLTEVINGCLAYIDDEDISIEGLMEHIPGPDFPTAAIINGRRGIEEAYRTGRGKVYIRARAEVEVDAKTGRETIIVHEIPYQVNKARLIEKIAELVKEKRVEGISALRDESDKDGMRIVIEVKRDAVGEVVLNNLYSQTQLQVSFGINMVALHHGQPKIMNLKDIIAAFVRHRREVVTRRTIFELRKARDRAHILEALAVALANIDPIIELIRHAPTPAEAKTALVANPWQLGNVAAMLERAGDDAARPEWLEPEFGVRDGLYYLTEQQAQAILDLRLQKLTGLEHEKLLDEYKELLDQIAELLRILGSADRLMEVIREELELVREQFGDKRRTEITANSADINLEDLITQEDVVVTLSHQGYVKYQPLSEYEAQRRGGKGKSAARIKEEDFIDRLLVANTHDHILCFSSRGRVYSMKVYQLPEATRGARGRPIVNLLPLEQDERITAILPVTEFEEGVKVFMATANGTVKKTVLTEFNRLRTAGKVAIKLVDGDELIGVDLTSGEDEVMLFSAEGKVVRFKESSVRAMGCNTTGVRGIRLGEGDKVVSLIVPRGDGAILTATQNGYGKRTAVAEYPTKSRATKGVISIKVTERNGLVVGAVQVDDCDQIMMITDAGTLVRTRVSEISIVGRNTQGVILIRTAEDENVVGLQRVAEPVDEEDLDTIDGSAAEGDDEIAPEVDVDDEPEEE
S. aureus GyrB ATPase, sequence (P0A0K8 whole entry): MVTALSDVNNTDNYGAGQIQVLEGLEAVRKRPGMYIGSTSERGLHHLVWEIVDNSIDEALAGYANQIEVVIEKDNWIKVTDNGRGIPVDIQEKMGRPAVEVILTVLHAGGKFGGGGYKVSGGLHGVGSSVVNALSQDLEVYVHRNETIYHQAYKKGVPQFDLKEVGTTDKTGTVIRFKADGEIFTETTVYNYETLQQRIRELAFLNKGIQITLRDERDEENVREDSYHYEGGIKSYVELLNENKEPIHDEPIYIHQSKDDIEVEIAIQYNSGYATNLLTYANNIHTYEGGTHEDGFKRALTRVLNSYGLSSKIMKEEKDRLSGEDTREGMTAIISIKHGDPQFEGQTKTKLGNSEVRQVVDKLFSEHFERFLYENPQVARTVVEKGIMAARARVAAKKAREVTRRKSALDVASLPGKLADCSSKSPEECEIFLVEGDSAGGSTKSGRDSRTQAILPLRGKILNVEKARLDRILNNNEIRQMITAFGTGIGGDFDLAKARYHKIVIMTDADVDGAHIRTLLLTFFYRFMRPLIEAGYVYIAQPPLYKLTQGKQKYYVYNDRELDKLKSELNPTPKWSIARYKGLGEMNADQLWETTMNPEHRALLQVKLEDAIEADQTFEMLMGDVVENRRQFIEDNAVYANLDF

Row | SMILES | inhibition at 1 µM [1] [%] | inhibition at 1 µM [%]
1 | CCNC(=O)Nc1cc(-c2nc(C(F)(F)F)cs2)c(-c2cnc3c(c2)c(=O)c(C(=O)O)cn3CC2CCN(C)CC2)cn1 [Example 1, 6-(6-(3-Ethylureido)-4-(4-(trifluoromethyl)thiazol-2-yl)pyridin-3-yl)-1-((1-methylpiperidin-4-yl)methyl)-4-oxo-1,4-dihydro-1,8-naphthyridine-3-carboxylic acid] | 107 | 
2 | CCNC(=O)Nc1cc(-c2nc(C(F)(F)F)cs2)c(-c2cnc3c(c2)c(=O)c(C(=O)O)cn3CCC2CCN(C)CC2)cn1 [Example 2, 6-(6-(3-ethylureido)-4-(4-(trifluoromethyl)thiazol-2-yl)pyridin-3-yl)-1-(2-(1-methylpiperidin-4-yl)ethyl)-4-oxo-1,4-dihydro-1,8-naphthyridine-3-carboxylic acid] | 123 | 
3 | CCNC(=O)Nc1cc(-c2nc(C(F)(F)F)cs2)c(-c2cnc3c(c2)c(=O)c(C(=O)O)cn3CC)cn1 [Example 8, 1-Ethyl-6-{6-[(ethylcarbamoyl)amino]-4-[4-(trifluoromethyl)-1,3-thiazol-2-yl]pyridin-3-yl}-4-oxo-1,4-dihydro-1,8-naphthyridine-3-carboxylic acid] | 98 | 
4 | CCNC(=O)Nc1cc(-c2nc(C(F)(F)F)cs2)c(-c2cnc3c(c2)c(=O)c(C(=O)O)cn3C2CC2)cn1 [Example 9, 1-Cyclopropyl-6-{6-[(ethylcarbamoyl)amino]-4-[4-(trifluoromethyl)-1,3-thiazol-2-yl]pyridin-3-yl}-4-oxo-1,4-dihydro-1,8-naphthyridine-3-carboxylic acid] | 96 | 
5 | CCNC(=O)Nc1cc(-c2nc(C(F)(F)F)cs2)c(-c2cnc3c(c2)c(=O)c(C(=O)O)cn3[C@H](CO)CC(C)C)cn1 [Example 11, 6-{6-[(ethylcarbamoyl)amino]-4-[4-(trifluoromethyl)-1,3-thiazol-2-yl]pyridin-3-yl}-1-[(2S)-1-hydroxy-4-methylpentan-2-yl]-4-oxo-1,4-dihydro-1,8-naphthyridine-3-carboxylic acid] | 104 | 
6 | CCNC(=O)Nc1cc(-c2nc(C(F)(F)F)cs2)c(-c2cnc3c(c2)c(=O)c(C(=O)O)cn3[C@H](CO)C(C)(C)C)cn1 [Example 12, 6-{6-[(ethylcarbamoyl)amino]-4-[4-(trifluoromethyl)-1,3-thiazol-2-yl]pyridin-3-yl}-1-[(2S)-1-hydroxy-3,3-dimethylbutan-2-yl]-4-oxo-1,4-dihydro-1,8-naphthyridine-3-carboxylic acid] | 104 | 
7 | CCNC(=O)Nc1cc(-c2nc(C(F)(F)F)cs2)c(-c2cnc3c(c2)c(=O)c(C(=O)O)cn3CCOP(=O)(O)O)cn1 [Example 14, 6-{6-[(ethylcarbamoyl)amino]-4-[4-(trifluoromethyl)-1,3-thiazol-2-yl]pyridin-3-yl}-4-oxo-1-[2-(phosphonooxy)ethyl]-1,4-dihydro-1,8-naphthyridine-3-carboxylic acid] | 103 | 
8 | CCNC(=O)Nc1cc(-c2nc(C(F)(F)F)cs2)c(-c2cnc3c(c2)c(=O)c(C(=O)O)cn3CCN(C)C)cn1 [Example 16, 1-[2-(dimethylamino)ethyl]-6-{6-[(ethylcarbamoyl)amino]-4-[4-(trifluoromethyl)-1,3-thiazol-2-yl]pyridin-3-yl}-4-oxo-1,4-dihydro-1,8-naphthyridine-3-carboxylic acid] | 104 | 
9 | CCNC(=O)Nc1cc(-c2nc(C(F)(F)F)cs2)c(-c2cnc3c(c2)c(=O)c(C(=O)OCCO)cn3CC)cn1 [Example 17, 2-hydroxyethyl 1-ethyl-6-{6-[(ethylcarbamoyl)amino]-4-[4-(trifluoromethyl)-1,3-thiazol-2-yl]pyridin-3-yl}-4-oxo-1,4-dihydro-1,8-naphthyridine-3-carboxylate] | 106 | 
10 | CCNC(=O)Nc1cc(-c2nc(C(F)(F)F)cs2)c(-c2cnc3c(c2)c(=O)c(C(=O)OCCCO)cn3CC)cn1 [Example 18, 3-hydroxypropyl 1-ethyl-6-{6-[(ethylcarbamoyl)amino]-4-[4-(trifluoromethyl)-1,3-thiazol-2-yl]pyridin-3-yl}-4-oxo-1,4-dihydro-1,8-naphthyridine-3-carboxylate] | 108 | 
11 | CCNC(=O)Nc1cc(-c2nc(C(F)(F)F)cs2)c(-c2cnc3c(c2)c(=O)c(C(=O)OCCOP(=O)(O)O)cn3CC)cn1 [Example 20, 2-(phosphonooxy)ethyl 1-ethyl-6-{6-[(ethylcarbamoyl)amino]-4-[4-(trifluoromethyl)-1,3-thiazol-2-yl]pyridin-3-yl}-4-oxo-1,4-dihydro-1,8-naphthyridine-3-carboxylate] |  | 104
12 | CCNC(=O)Nc1cc(-c2nc(C(F)(F)F)cs2)c(-c2cnc3c(c2)c(=O)c(C(=O)OCCCOP(=O)(O)O)cn3CC)cn1 [Example 22, 3-(Phosphonooxy)propyl 1-ethyl-6-{6-[(ethylcarbamoyl)amino]-4-[4-(trifluoromethyl)-1,3-thiazol-2-yl]pyridin-3-yl}-4-oxo-1,4-dihydro-1,8-naphthyridine-3-carboxylate] | 104 | 
13 | CCNC(=O)Nc1cc(-c2nc(C(F)(F)F)cs2)c(-c2cnc3c(c2)c(=O)c(C(=O)O)cn3[C@H](COP(=O)(O)O)CC(C)C)cn1 [Example 25, 6-{6-[(ethylcarbamoyl)amino]-4-[4-(trifluoromethyl)-1,3-thiazol-2-yl]pyridin-3-yl}-1-[(2S)-4-methyl-1-(phosphonooxy)pentan-2-yl]-4-oxo-1,4-dihydro-1,8-naphthyridine-3-carboxylic acid] | 108 | 
14 | CCNC(=O)Nc1cc(-c2nc(C(F)(F)F)cs2)c(-c2cnc3c(c2)c(=O)c(C(=O)O)cn3[C@@H]2CCCN(CCN3CCOCC3)C2)cn1 [Example 29] |  | 105
15 | CCNC(=O)Nc1cc(-c2nc(C(F)(F)F)cs2)c(-c2cnc3c(c2)c(=O)c(C(=O)O)cn3[C@H]2CCCN(CCN3CCOCC3)C2)cn1 [Example 31] | 104 | 
16 | CCNC(=O)Nc1cc(-c2nc(C(F)(F)F)cs2)c(-c2cnc3c(c2)c(=O)c(C(=O)O)cn3C[C@@H]2CCCN2CC)cn1 [Example 32] | 103 | 
17 | CCNC(=O)Nc1cc(-c2nc(C(F)(F)F)cs2)c(-c2cnc3c(c2)c(=O)c(C(=O)O)cn3C[C@H]2CCCN2CC)cn1 [Example 33] | 102 | 
18 | CCNC(=O)Nc1cc(-c2nc(CC(C)C)cs2)c(-c2cnc3c(c2)c(=O)c(C(=O)O)cn3[C@H]2CCCN(CCN(CC)CC)C2)cn1 [Example 34, (S)-1-(1-(2-(diethylamino)ethyl)piperidin-3-yl)-6-(6-(3-ethylureido)-4-(4-isobutylthiazol-2-yl)pyridin-3-yl)-4-oxo-1,4-dihydro-1,8-naphthyridine-3-carboxylic acid] | 103 | 
19 | CCNC(=O)Nc1cc(-c2nc(-c3ccccc3)cs2)c(-c2cnc3c(c2)c(=O)c(C(=O)O)cn3[C@H]2CCCN(CCN(CC)CC)C2)cn1 [Example 35] | 102 | 
20 | CCNC(=O)Nc1cc(-c2nc(C(F)(F)F)cs2)c(-c2cc3c(=O)c(C(=O)O)cn(C[C@@H]4CCCN4CC)c3nc2NCCN(C)C)cn1 [Example 36, 7-(2-(dimethylamino)ethylamino)-1-(((S)-1-ethylpyrrolidin-2-yl)methyl)-6-(6-(3-ethylureido)-4-(4-(trifluoromethyl)thiazol-2-yl)pyridin-3-yl)-4-oxo-1,4-dihydro-1,8-naphthyridine-3-carboxylic acid] | 100 | 
21 | CCNC(=O)Nc1cc(-c2nc(C(F)(F)F)cs2)c(-c2cc3c(=O)c(C(=O)O)cn(CC)c3nc2NCCN(C)C)cn1 [Example 37, 7-(2-(dimethylamino)ethylamino)-1-ethyl-6-(6-(3-ethylureido)-4-(4-(trifluoromethyl)thiazol-2-yl)pyridin-3-yl)-4-oxo-1,4-dihydro-1,8-naphthyridine-3-carboxylic acid] | 109 | 
22 | CCNC(=O)Nc1cc(-c2nc(C(F)(F)F)cs2)c(-c2cc3c(=O)c(C(=O)O)cn(CC)c3nc2N2CCN(C)CC2)cn1 [Example 38, 1-ethyl-6-(6-(3-ethylureido)-4-(4-(trifluoromethyl)thiazol-2-yl)pyridin-3-yl)-7-(4-methylpiperazin-1-yl)-4-oxo-1,4-dihydro-1,8-naphthyridine-3-carboxylic acid] | 101 | 
23 | CCNC(=O)Nc1cc(-c2nc(C(F)(F)F)cs2)c(-c2cc3c(=O)c(C(=O)O)cn(C4CCCCC4)c3cn2)cn1 [Example 39, 1-cyclohexyl-6-(6-(3-ethylureido)-4-(4-(trifluoromethyl)thiazol-2-yl)pyridin-3-yl)-4-oxo-1,4-dihydro-1,7-naphthyridine-3-carboxylic acid] | 102 | 
24 | CCNC(=O)Nc1cc(-c2nc(C(F)(F)F)cs2)c(-c2cc3c(=O)c(C(=O)O)cn(CCC(C)(C)C)c3cn2)cn1 [Example 40] | 103 | 
25 | CCNC(=O)Nc1cc(-c2nc(C(F)(F)F)cs2)c(-c2cc3c(=O)c(C(=O)O)cn(C[C@H]4CCCN4CC)c3cn2)cn1 [Example 41] | 102 | 
26 | CCNC(=O)Nc1cc(-c2nc(C(F)(F)F)cs2)c(-c2cc3c(=O)c(C(=O)O)cn(C[C@@H]4CCCN4CC)c3cn2)cn1 [Example 42] | 103 | 
27 | CCNC(=O)Nc1cc(-c2nc(C(F)(F)F)cs2)c(-c2cc3c(=O)c(C(=O)O)cn(CC(C)N4CCOCC4)c3cn2)cn1 (stereo not shown) [Example 43] | 94 | 
28 | CCNC(=O)Nc1cc(-c2nc(C(F)(F)F)cs2)c(-c2cc3c(=O)c(C(=O)O)cn(C(COC)COC)c3cn2)cn1 [Example 44] | 102 | 
